What was measured:
[1] = biological target: brevetoxin receptor (site five of voltage gated sodium channels); format: binding
sheep = settings: in vivo; cited from earlier work
brevenal receptor = format: binding

| Structure (SMILES) | Ki [1] [nM] | bronchoconstriction (effect on RL) (sheep) | Ki (brevenal receptor) [nM] | increase in RL (pulmonary resistance) (sheep) |
| --- | --- | --- | --- | --- |
| C=C/C=C\CC[C@H]1O[C@H]2CC[C@@]3(C)O[C@H]4[C@@H](O)C[C@@]5(C)O[C@@H](CC/C=C(C)/C(C)=C/C=O)[C@@H](C)C[C@H]5O[C@@H]4C[C@@H]3O[C@@H]2CC[C@@]1(C)O [Compound 3, brevenal] | 1130 ± 153 | no effects observed | 137 ± 16 |  |
| C=C(C=O)C[C@@H]1C[C@H](O)[C@]2(C)O[C@@H]3C[C@@H]4O[C@@H]5C[C@]6(C)O[C@]7(C)CC[C@@H]8O[C@@H]9C[C@]%10(C)O[C@@H]%11C(C)=CC(=O)O[C@H]%11C[C@H]%10O[C@H]9C[C@@H](C)[C@H]8O[C@H]7C[C@H]6O[C@H]5C/C=C\[C@H]4O[C@H]3C[C@H]2O1 [brevetoxin, PbTx-2] |  |  |  | 221% ± 21% |
